Experimental data reported in ChEMBL document CHEMBL1955725, “Structure-guided lead optimization of triazolopyrimidine-ring substituents identifies potent Plasmodium falciparum dihydroorotate dehydrogenase inhibitors with clinical candidate potential” (J Med Chem, 2011).
Converted amounts (≈) assume the structure as drawn.

Key:
[1] = Cmax in human RBC engrafted NOD-SCID IL-2Rgamma-null mouse at 10 mg/kg, po; type: ADME, organism-based; design: dose 10 mg/kg, route oral; conditions: in vivo
[2] = test system: Mus musculus; assay: AUC (0 to 10 hrs) in human RBC engrafted NOD-SCID IL-2Rgamma-null mouse infected with Plasmodium falciparum 3D7 0087/N9 at 10 mg/kg, po; type: ADME, organism-based, Plasma; design: time < 10 hr, dose 10 mg/kg, route oral; conditions: in vivo
[3] = Cmax in human RBC engrafted NOD-SCID IL-2Rgamma-null mouse infected with Plasmodium falciparum 3D7 0087/N9 at 10 mg/kg, po; type: ADME, organism-based; design: dose 10 mg/kg, route oral; conditions: in vivo
[4] = in vivo; conditions: NOD-SCID IL-2Rgamma-null, mouse, po, 10 mg/kg
[5] = test system: Plasmodium falciparum; assay: Antimalarial activity against Plasmodium falciparum 3D7 0087/N9 infected in human RBC engrafted NOD-SCID IL-2Rgamma-null mouse assessed as reduction in parasitemia administered orally 3 days post infection qd for 4 days measured 24 hrs after final dose by FACS analysis; type: functional; conditions: 3D7 0087/N9, po
[6] = in vivo; conditions: NOD-SCID IL-2Rgamma-null, mouse, po, 10 mg/kg; remark: listed apart in the source
[7] = test system: Mus musculus; assay: AUC (0 to 10 hrs) in human RBC engrafted NOD-SCID IL-2Rgamma-null mouse at 10 mg/kg, po; type: ADME, organism-based, Plasma; design: time < 10 hr, dose 10 mg/kg, route oral; conditions: in vivo
[8] = target: T1, Dihydroorotate dehydrogenase (Plasmodium falciparum, UniProt Q54A96)
T1 sequence (Q54A96 whole entry): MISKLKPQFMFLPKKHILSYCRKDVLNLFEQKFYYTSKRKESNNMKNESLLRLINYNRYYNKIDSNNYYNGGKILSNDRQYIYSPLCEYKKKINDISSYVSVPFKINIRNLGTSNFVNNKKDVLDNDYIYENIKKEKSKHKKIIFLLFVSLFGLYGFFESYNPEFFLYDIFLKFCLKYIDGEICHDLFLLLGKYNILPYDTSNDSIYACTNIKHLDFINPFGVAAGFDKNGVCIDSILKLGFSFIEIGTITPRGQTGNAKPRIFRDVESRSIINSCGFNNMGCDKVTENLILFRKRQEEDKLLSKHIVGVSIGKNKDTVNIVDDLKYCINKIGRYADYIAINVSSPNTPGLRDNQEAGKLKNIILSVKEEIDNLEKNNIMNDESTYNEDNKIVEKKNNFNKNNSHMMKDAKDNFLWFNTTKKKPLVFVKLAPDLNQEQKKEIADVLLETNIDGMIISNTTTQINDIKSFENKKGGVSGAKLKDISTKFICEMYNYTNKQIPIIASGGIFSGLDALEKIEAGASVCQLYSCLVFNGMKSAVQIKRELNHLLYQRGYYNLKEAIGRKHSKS
Description: Inhibition of Plasmodium falciparum C-terminal hexa-His tagged DHODH expressed in Escherichia coli by DCIP reduction assay

[9] = Inhibition of Plasmodium berghei C-terminal hexa-His tagged DHODH expressed in Escherichia coli by DCIP reduction assay
[10] = Aqueous solubility of the compound at pH 6.5; type: physicochemical
[11] = test system: Liver; assay: Intrinsic clearance in mouse liver microsomes; type: ADME, Microsome
[12] = test system: Plasma; assay: Plasma protein binding in human by chromatographic method; type: ADME, cell-free
[13] = test system: Plasmodium falciparum; assay: Antimalarial activity against Plasmodium falciparum 3D7 by [3H]hypoxanthine incorporation assay in presence of human serum; type: functional, organism-based
[14] = Lipophilicity, log D of the compound at pH 7.4; type: physicochemical; conditions: buffer
[15] = test system: Liver microsomes; assay: Intrinsic clearance in human liver microsomes; type: ADME, Microsome
[16] = AUC (0 to infinity) in Swiss outbred mouse plasma at 20 mg/kg, po; type: ADME, organism-based; design: time infinity, dose 20 mg/kg, route oral
[17] = in vivo; conditions: Swiss outbred, mouse, po, 20 mg/kg
[18] = Cmax in Swiss outbred mouse at 20 mg/kg, po; type: ADME, organism-based; design: dose 20 mg/kg, route oral; conditions: in vivo
[19] = test system: Mus musculus; assay: Time plasma concentration remained above 1 uM in Swiss outbred mouse plasma at 20 mg/kg, po; type: ADME, organism-based; design: dose 20 mg/kg, route oral; conditions: in vivo
[20] = Terminal elimination half life in Swiss outbred mouse at 20 mg/kg, po; type: ADME, organism-based; design: dose 20 mg/kg, route oral; conditions: in vivo, read-out: beta t1/2 (converted)
[21] = target: Dihydroorotate dehydrogenase (quinone), mitochondrial (Homo sapiens, UniProt Q02127)
Chain of Dihydroorotate dehydrogenase (quinone), mitochondrial (Q02127 whole entry): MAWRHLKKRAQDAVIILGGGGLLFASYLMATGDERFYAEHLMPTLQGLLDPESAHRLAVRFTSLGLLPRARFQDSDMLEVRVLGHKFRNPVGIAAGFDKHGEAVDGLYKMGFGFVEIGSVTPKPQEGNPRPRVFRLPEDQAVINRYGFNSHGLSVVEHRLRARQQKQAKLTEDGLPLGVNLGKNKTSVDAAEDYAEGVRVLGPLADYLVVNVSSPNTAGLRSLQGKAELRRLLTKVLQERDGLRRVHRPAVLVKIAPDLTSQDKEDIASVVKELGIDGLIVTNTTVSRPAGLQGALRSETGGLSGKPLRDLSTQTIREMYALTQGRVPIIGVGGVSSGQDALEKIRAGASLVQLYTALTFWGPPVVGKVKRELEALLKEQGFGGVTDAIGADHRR
Description: Inhibition of human C-terminal hexa-His tagged DHODH expressed in Escherichia coli by DCIP reduction assay

[22] = AUC (0 to infinity) in Swiss outbred mouse plasma at 10 mg/kg, po; type: ADME, organism-based; design: time infinity, dose 10 mg/kg, route oral
[23] = Terminal elimination half life in Swiss outbred mouse at 10 mg/kg, po; type: ADME, organism-based; design: dose 10 mg/kg, route oral; conditions: in vivo, read-out: beta t1/2 (converted)
[24] = in vivo; conditions: Swiss outbred, mouse, po, 10 mg/kg
[25] = Cmax in Swiss outbred mouse at 10 mg/kg, po; type: ADME, organism-based; design: dose 10 mg/kg, route oral; conditions: in vivo
[26] = test system: Mus musculus; assay: Time plasma concentration remained above 1 uM in Swiss outbred mouse plasma at 10 mg/kg, po; type: ADME, organism-based; design: dose 10 mg/kg, route oral; conditions: in vivo

Structure (SMILES) | IC50 [8] [nM] | IC50 [9] [nM] | solubility [10] [µM] | Intrinsic clearance [11] [µL/min/mg] | PPB [12] [%] | EC50 [13] [nM] | logD [14] | Intrinsic clearance [15] [µL/min/mg] | IC50 [21] [µM] | further results
Cc1cc(Nc2cc(F)c(C(F)(F)F)c(F)c2)n2ncnc2n1 | – | – | – | – | – | – | – | – | – | Cmax [1]: 8.5 µM; AUC [2]: 3173 µM·min; Cmax [3]: 8.2 µM; Tmax [4]: 3.3 h; ED50 [5]: 19 mg/kg; ED90 [5]: 59 mg/kg; Tmax [6]: 2 h; AUC [7]: 3848 µM·min
CCc1nc2nc(C)cc(Nc3ccc(Cl)cc3)n2n1 | 280 | 2300 | 170 (≈ 48.9 µg/mL) | 63.1 | 86.1 | 790 | 2.8 | 12.8 | – | –
CCc1nc2nc(C)cc(Nc3cccc(Cl)c3)n2n1 | 240 | – | 170 (≈ 48.9 µg/mL) | 125.4 | 86.7 | 3300 | 2.8 | 78.3 | – | –
CCc1nc2nc(C)cc(Nc3ccc(C(F)(F)F)cc3)n2n1 | 87 | 760 | 39 (≈ 12.5 µg/mL) | 14.4 | 87.5 | 58 | 3 | < 5 | > 100 | AUC(0-inf) [16]: 27.1 µM·h; Tmax [17]: 1 h; Cmax [18]: 12.6 µM; Time [19]: 5 h; half-life [20]: 504 min
CCc1nc2nc(C)cc(Nc3ccc(S(F)(F)(F)(F)F)cc3)n2n1 | – | 1400 | 34 (≈ 12.9 µg/mL) | 16.7 | 96.4 | 100 | 3.3 | < 5 | > 100 | –
Cc1cc(Nc2ccc(Cl)cc2)n2nc(C(C)C)nc2n1 | 330 | 2100 | 83 (≈ 25 µg/mL) | 157.7 | 84.9 | 850 | 3.2 | 14.1 | – | –
Cc1cc(Nc2ccc(C(F)(F)F)cc2)n2nc(C3CC3)nc2n1 | 140 | 2600 | 38 (≈ 12.7 µg/mL) | 8.6 | 92.8 | 150 | 3.3 | < 5 | > 100 | –
Cc1cc(Nc2ccc(S(F)(F)(F)(F)F)cc2)n2nc(C3CC3)nc2n1 | – | 2000 | 16 (≈ 6.26 µg/mL) | 12.6 | 97.7 | 500 | 3.5 | < 5 | > 100 | –
Cc1cc(Nc2ccc(Cl)cc2)n2nc(C(C)(F)F)nc2n1 | 38 | 1700 | 77 (≈ 24.9 µg/mL) | 62.8 | 87.9 | 50 | 3 | 16 | > 100 | –
Cc1cc(Nc2cccc(Cl)c2)n2nc(C(C)(F)F)nc2n1 | 54 | – | 77 (≈ 24.9 µg/mL) | 72.2 | 88.2 | 130 | 3 | 44.4 | – | –
CCC(F)(F)c1nc2nc(C)cc(Nc3ccc(C(F)(F)F)cc3)n2n1 | 19 | 2500 | 17 (≈ 6.31 µg/mL) | 6.5 | 93.2 | 45 | 3.6 | < 5 | > 100 | AUC(0-inf) [22]: 10.9 µM·h; half-life [23]: 186 min; Tmax [24]: 30 min; Cmax [25]: 3.5 µM; Time [26]: 4 h
CCC(F)(F)c1nc2nc(C)cc(Nc3ccc(S(F)(F)(F)(F)F)cc3)n2n1 | – | 4700 | 15 (≈ 6.44 µg/mL) | 6.7 | 97.7 | 550 | 3.9 | < 5 | > 100 | –
COCc1nc2nc(C)cc(Nc3ccc(C(F)(F)F)cc3)n2n1 | 410 | 5500 | 150 (≈ 50.6 µg/mL) | 13.3 | 75.6 | 1000 | 2.5 | 6.7 | – | –
COCc1nc2nc(C)cc(Nc3ccc(S(F)(F)(F)(F)F)cc3)n2n1 | 390 | 3300 | 63 (≈ 24.9 µg/mL) | 14.3 | 91.7 | 2100 | 2.8 | 5.6 | – | –
COCCc1nc2nc(C)cc(Nc3ccc(C(F)(F)F)cc3)n2n1 | 2500 | – | 71 (≈ 24.9 µg/mL) | 14.3 | 73.7 | 4200 | 2.7 | 9 | – | –
CSc1nc2nc(C)cc(Nc3ccc(C(F)(F)F)cc3)n2n1 | 36 | 4800 | 19 (≈ 6.45 µg/mL) | 76.9 | 91.8 | 8.4 | 3.2 | 18.7 | – | –
CSc1nc2nc(C)cc(Nc3ccc(S(F)(F)(F)(F)F)cc3)n2n1 | 30 | > 10000 | 7.8 (≈ 3.1 µg/mL) | 107.5 | 97.7 | 32 | 3.5 | 22.4 | – | –
CCOc1nc2nc(C)cc(Nc3ccc(C(F)(F)F)cc3)n2n1 | 56 | 2700 | 19 (≈ 6.41 µg/mL) | 14.4 | 92.4 | 58 | 3.1 | 7 | > 100 | AUC(0-inf) [16]: 20.7 µM·h; Tmax [17]: 1 h; Cmax [18]: 5.8 µM; Time [19]: 6 h; half-life [20]: 84 min
CCOc1nc2nc(C)cc(Nc3ccc(S(F)(F)(F)(F)F)cc3)n2n1 | 57 | 470 | 4 (≈ 1.58 µg/mL) | 11.3 | 97.7 | 100 | 3.4 | < 5 | > 100 | AUC(0-inf) [16]: 10.1 µM·h; Tmax [17]: 1 h; Cmax [18]: 1.1 µM; Time [19]: 3 h; half-life [20]: 162 min
C[C@H]1[C@H](OC(=O)CCC(=O)O)O[C@@H]2O[C@@]3(C)CC[C@H]4[C@H](C)CC[C@@H]1[C@@]24OO3 [ARTESUNATE] | – | – | – | – | – | – | – | – | – | ED90 [5]: 12.7 mg/kg
CCN(CC)CCCC(C)Nc1ccnc2cc(Cl)ccc12 (stereo not drawn) [CHLOROQUINE] | – | – | – | – | – | – | – | – | – | ED50 [5]: 3.2 mg/kg; ED90 [5]: 4.9 mg/kg
